Usually IC50 stands for the midpoint of a concentration-inhibition curve.

Consider five compounds from ChEMBL document CHEMBL2021861, “Structure-activity relationship study of opiorphin, a human dual ectopeptidase inhibitor with antinociceptive properties” (J Med Chem, 2012).

Numbered stars: 1 amine (or outer) side, 2 acyl side, 3 side chain; on linkers, the order of the positions; unused ones are H or OH. Square brackets hold non-standard residues; d marks the D form. Peptide text beside a SMILES is read from it. β3hPhg = O=C(C[C@@H](N[*:1])c1ccccc1)[*:2]; Phg = N[C@H](C(=O)O)c1ccccc1

The target of one test is Neprilysin (Homo sapiens, UniProt P08473). The test can be described thus: Inhibition of human recombinant NEP ectopeptidase activity using Abz-dRGL-(EDDnp) as substrate preincubated for 10 mins with substrate by fluorimetric analysis.
The next test has as its target Aminopeptidase N (Homo sapiens, UniProt P15144). The test can be described thus: Inhibition of human recombinant AP-N ectopeptidase activity using alanine-MCA as substrate preincubated for 10 mins with substrate by fluorimetric analysis.

Chain of Aminopeptidase N (P15144 whole entry): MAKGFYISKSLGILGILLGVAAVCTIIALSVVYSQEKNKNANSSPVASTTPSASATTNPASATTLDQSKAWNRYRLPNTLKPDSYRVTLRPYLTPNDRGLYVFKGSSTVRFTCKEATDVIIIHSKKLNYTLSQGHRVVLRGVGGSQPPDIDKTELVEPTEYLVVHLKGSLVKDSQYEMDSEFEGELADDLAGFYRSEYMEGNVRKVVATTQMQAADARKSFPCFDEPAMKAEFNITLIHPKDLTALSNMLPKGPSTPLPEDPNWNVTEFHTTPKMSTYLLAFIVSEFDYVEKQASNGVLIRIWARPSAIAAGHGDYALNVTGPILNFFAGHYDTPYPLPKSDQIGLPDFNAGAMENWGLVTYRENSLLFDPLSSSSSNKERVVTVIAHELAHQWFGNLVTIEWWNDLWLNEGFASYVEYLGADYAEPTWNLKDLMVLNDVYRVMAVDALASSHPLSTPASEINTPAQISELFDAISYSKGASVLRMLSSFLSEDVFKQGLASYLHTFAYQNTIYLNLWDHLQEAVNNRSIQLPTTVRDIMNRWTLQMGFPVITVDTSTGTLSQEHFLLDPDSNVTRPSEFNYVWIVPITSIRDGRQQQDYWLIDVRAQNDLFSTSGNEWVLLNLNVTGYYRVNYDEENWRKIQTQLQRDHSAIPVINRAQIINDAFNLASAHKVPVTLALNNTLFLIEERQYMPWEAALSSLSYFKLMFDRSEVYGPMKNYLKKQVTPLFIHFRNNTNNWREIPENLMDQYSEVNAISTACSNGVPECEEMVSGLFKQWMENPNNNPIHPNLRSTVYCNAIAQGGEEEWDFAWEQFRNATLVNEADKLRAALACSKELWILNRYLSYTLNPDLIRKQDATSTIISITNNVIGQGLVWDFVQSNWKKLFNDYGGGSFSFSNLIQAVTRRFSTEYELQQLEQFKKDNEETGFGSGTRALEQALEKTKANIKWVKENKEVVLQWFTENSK
Chain of Neprilysin (P08473 whole entry): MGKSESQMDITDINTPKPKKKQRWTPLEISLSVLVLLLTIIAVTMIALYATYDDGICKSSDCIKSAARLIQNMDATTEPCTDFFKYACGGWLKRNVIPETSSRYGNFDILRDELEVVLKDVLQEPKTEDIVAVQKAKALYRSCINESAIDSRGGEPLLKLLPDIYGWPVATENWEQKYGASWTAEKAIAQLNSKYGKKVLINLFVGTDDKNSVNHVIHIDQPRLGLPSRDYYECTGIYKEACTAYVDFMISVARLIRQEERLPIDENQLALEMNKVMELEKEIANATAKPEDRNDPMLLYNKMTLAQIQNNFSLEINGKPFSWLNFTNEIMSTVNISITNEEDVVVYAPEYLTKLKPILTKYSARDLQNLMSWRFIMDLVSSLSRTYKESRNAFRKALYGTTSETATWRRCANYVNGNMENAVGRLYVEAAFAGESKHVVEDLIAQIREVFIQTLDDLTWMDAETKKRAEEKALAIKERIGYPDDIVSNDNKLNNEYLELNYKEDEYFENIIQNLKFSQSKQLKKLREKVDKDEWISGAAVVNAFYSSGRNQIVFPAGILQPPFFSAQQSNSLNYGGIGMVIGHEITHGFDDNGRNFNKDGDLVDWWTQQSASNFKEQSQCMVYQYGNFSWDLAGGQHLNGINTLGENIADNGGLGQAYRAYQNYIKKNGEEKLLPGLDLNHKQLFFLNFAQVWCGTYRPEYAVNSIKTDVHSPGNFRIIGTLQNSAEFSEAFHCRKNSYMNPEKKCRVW

`N=C(N)NCCC[C@H](NC(=O)[C@H](CO)NC(=O)[C@@H](NC(=O)[C@H](CCCNC(=N)N)NC(=O)[C@@H](N)CCC(N)=O)c1ccccc1)C(=O)O` (H-QR[Phg]SR-OH): the IC50 on Neprilysin was over 100 µM.
`NC(=O)CC[C@H](N)C(=O)N[C@@H](CCCN=C(N)N)C(=O)N[C@H](CC(=O)N[C@@H](CO)C(=O)N[C@@H](CCCN=C(N)N)C(=O)O)c1ccccc1` (H-QR[β3hPhg]SR-OH): the IC50 at Neprilysin was over 100 µM; on Aminopeptidase N, over 70 µM.
In the case of H-ARFSR-OH, the IC50 at Neprilysin was over 70 µM.
Regarding H-QRASR-OH, the IC50 on Neprilysin was over 100 µM; on Aminopeptidase N, over 70 µM.
H-QRFSA-OH: on Aminopeptidase N, the IC50 was over 70 µM.
